Results: US7049313B2, “ATM inhibitors” (Kudos Pharmaceuticals Ltd., priority 2002, dated 2006)
“Also recorded” adds a separate entry of the source.

Experiments:
HIV-1 HXB2 wild type = assay: HIV-1 4-day replication assay, wild type strain (p24 antigen ELISA); type: cell-based; details: for IC50: Human immunodeficiency virus 1, HXB2, 96 h, C8166 T-cells, 4-day replication, p24
Procedure: (§1) HIV-1 4-day Replication Assays
(§2) C8166 T-cells were washed and infected with HIV-1 (strains HXB2wt and HXB2AZTres, RT amino acid changes 67N, 70R, 215F, 219Q) at low multiplicity of infection for one hour at room temperature. The cells were then washed and distributed (5×10^4 cells/well) in triplicate into the wells of 96-well cell culture plates containing different concentrations of inhibitors. The plates were then incubated at 37° C. for 4 days. The cell-free culture fluid was then harvested and assayed for levels of p24 viral antigen using a commercially available ELISA kit (Murex), according to the manufacturers' instructions. Cytotoxicity was evaluated by distributing (5×10^4 cells/well) uninfected C8166 T-cells into triplicate wells of 96-well cell culture plates containing different concentrations of inhibitor and incubating the plates at 37° C. After 4 days, 25 μl of XTT, which is metabolised by viable but not dead cells was added and the plates incubated for a further 3 hours at 37° C. Finally, the absorbance was read at a wavelength of 450 nm.

HIV-1 HXB2 AZT resistant = assay: microbe, parasite or virus in culture; type: cell-based; details: for IC50: Human immunodeficiency virus 1, HXB2, C8166, 96 h, read-out: HIV-1 HXB2 (IC50 μM) AZT resistant
Procedure: as §1, §2

HIV-1 [1] = assay: HIV-1 based LUCIA, all other cell lines tested; details: Human immunodeficiency virus 1
Source text: Retroviral Transductions (LUCIA).

LoVo cells = assay: Clonogenic survival assay, sensitisation to DNA double strand break chemotherapeutics; type: cell-based, human; details: 10 μM of compound
Procedure: (§3) Sensitisation of Cells to Ionising Radiation or DNA Double Strand Break Chemotherapies
(§4) The HeLa line was used for ionising radiation studies while LoVo was used for studies with chemotherapeutic agents. […] After 1 hour, a concentration range of either etoposide (FIG. 2), camptothecin (FIG. 3) or doxorubicin (FIG. 4) was added. […] For all treatments, after a further 16 hours incubation, drug containing media was removed and fresh media added prior to a further incubation of 10 days before the staining of colonies with Giemsa. All compounds were solubilised in DMSO, with a final concentration on cells of no more than 0.1%. Resulting colonies containing >50 cells were counted as positives.

HIV-1 [2] = assay: HIV-1 based luciferase assay (LUCIA) on Jurkat T-cells; type: cell-based; details: FIG. 5
HIV-1 RT = molecular target: T1, HIV-1 RT (Human immunodeficiency virus type 1 group M subtype B, UniProt P04585); assay: Chemilluminescent HIV-1 reverse transcriptase assay; type: biochemical; details: FIG. 6
T1 construct: chemilluminescent HIV-1 reverse transcriptase assays
Source text: Control RT inhibition using nevirapine (□) is also shown.

C8166 T-cells = assay: Cytotoxicity on uninfected C8166 T-cells (XTT dye reduction); type: cell-based; details: 4 days, XTT, FIG. 8C
Procedure: as §2

[3] = as above; type: cell-based; details: human, uninfected C8166 T-cells, read-out: 50% cytotoxic concentration (CC50)
Procedure: as §2

HeLa cells = assay: Clonogenic survival assay, sensitisation to ionising radiation; type: cell-based, human
Procedure: as §3, §4

ATM = molecular target: T2, ATM (Homo sapiens, UniProt Q13315); assay: In vitro ATM inhibition assay (phosphorylation of GSTp53N66 on serine 15); type: biochemical
T2 construct: ATM protein was immunoprecipitated from HeLa cell nuclear extract; endogenous in cells; host or cells: HeLa cell nuclear extract (immunoprecipitate)
Procedure: In vitro ATM inhibition Assays
In order to assess the inhibitory action of the compounds against ATM in vitro, the following assay was used to determine IC50 values.
ATM protein was immunoprecipitated from HeLa cell nuclear extract using rabbit polyclonal anti-sera raised to the C-terminal ˜500 amino-acid residues of the human ATM protein. The immunoprecipitation was performed according to the methodology described by Banin, S. et al. (1998). 10 μl of immunoprecipitated ATM in Buffer C (50 mM Hepes, pH 7.4, 6 mM MgCl2, 150 mM NaCl, 0.1 mM sodium orthovanadate, 4 mM MnCl2, 0.1 mM dithiothreitol, 10% glycerol) was added to 32.5 μl of buffer C containing 1 μg of the ATM substrate GSTp53N66 in a V-bottomed 96 well polypropylene plate. The GSTp53N66 substrate is the amino terminal 66 amino acid residues of human wild type p53 fused to glutathione S-transferase. ATM phosphorylates p53 on the residue serine 15 (Banin, S. et al. (1998)). Varying concentrations of inhibitor were then added. […] After 10 minutes of incubation at 37° C., the reactions were initiated by the addition of 5 μl of 500 μM Na-ATP. After 1 hour with shaking at 37° C., 150 μl of phosphate buffered saline (PBS) was added to the reaction and the plate centrifuged at 1500 rpm for 10 minutes. 5 μl of the reaction was then transferred to a 96 well opaque white plate containing 45 μl of PBS to allow the GSTp53N66 substrate to bind to the plate wells. The plate was covered and incubated at room temperature for 1 hour with shaking before discarding the contents. The plate wells were washed twice by the addition of PBS prior to the addition of 3% (w/v) bovine serum albumin (BSA) in PBS. The plate was incubated at room temperature for 1 hour with shaking before discarding the contents and washing twice with PBS. To the wells, 50 μl of a 1:10,000 dilution of primary phosphoserine-15 antibody (Cell Signaling Technology, #9284L) in 3% BSA/PBS was added to detect the phosphorylation event on the serine 15 residue of p53 elicited by the ATM kinase. After 1 hour of incubation at room temperature with shaking, the wells were washed four times with PBS prior to the addition of an anti-rabbit HRP conjugated secondary antibody (Pierce, 31462) with shaking for 1 hour at room temperature. The wells were then washed four times with PBS before the addition of chemiluminescence reagent (NEN Renaissance, NEL105). The plate was then shaken briefly, covered with a transparent plate seal and transferred to a TopCount NXT for chemiluminescent counting. Counts per second, following a one second counting time, were recorded for each reaction.
The enzyme activity for each compound is then calculated using the following equation: […]

T2 sequence (Q13315 whole entry): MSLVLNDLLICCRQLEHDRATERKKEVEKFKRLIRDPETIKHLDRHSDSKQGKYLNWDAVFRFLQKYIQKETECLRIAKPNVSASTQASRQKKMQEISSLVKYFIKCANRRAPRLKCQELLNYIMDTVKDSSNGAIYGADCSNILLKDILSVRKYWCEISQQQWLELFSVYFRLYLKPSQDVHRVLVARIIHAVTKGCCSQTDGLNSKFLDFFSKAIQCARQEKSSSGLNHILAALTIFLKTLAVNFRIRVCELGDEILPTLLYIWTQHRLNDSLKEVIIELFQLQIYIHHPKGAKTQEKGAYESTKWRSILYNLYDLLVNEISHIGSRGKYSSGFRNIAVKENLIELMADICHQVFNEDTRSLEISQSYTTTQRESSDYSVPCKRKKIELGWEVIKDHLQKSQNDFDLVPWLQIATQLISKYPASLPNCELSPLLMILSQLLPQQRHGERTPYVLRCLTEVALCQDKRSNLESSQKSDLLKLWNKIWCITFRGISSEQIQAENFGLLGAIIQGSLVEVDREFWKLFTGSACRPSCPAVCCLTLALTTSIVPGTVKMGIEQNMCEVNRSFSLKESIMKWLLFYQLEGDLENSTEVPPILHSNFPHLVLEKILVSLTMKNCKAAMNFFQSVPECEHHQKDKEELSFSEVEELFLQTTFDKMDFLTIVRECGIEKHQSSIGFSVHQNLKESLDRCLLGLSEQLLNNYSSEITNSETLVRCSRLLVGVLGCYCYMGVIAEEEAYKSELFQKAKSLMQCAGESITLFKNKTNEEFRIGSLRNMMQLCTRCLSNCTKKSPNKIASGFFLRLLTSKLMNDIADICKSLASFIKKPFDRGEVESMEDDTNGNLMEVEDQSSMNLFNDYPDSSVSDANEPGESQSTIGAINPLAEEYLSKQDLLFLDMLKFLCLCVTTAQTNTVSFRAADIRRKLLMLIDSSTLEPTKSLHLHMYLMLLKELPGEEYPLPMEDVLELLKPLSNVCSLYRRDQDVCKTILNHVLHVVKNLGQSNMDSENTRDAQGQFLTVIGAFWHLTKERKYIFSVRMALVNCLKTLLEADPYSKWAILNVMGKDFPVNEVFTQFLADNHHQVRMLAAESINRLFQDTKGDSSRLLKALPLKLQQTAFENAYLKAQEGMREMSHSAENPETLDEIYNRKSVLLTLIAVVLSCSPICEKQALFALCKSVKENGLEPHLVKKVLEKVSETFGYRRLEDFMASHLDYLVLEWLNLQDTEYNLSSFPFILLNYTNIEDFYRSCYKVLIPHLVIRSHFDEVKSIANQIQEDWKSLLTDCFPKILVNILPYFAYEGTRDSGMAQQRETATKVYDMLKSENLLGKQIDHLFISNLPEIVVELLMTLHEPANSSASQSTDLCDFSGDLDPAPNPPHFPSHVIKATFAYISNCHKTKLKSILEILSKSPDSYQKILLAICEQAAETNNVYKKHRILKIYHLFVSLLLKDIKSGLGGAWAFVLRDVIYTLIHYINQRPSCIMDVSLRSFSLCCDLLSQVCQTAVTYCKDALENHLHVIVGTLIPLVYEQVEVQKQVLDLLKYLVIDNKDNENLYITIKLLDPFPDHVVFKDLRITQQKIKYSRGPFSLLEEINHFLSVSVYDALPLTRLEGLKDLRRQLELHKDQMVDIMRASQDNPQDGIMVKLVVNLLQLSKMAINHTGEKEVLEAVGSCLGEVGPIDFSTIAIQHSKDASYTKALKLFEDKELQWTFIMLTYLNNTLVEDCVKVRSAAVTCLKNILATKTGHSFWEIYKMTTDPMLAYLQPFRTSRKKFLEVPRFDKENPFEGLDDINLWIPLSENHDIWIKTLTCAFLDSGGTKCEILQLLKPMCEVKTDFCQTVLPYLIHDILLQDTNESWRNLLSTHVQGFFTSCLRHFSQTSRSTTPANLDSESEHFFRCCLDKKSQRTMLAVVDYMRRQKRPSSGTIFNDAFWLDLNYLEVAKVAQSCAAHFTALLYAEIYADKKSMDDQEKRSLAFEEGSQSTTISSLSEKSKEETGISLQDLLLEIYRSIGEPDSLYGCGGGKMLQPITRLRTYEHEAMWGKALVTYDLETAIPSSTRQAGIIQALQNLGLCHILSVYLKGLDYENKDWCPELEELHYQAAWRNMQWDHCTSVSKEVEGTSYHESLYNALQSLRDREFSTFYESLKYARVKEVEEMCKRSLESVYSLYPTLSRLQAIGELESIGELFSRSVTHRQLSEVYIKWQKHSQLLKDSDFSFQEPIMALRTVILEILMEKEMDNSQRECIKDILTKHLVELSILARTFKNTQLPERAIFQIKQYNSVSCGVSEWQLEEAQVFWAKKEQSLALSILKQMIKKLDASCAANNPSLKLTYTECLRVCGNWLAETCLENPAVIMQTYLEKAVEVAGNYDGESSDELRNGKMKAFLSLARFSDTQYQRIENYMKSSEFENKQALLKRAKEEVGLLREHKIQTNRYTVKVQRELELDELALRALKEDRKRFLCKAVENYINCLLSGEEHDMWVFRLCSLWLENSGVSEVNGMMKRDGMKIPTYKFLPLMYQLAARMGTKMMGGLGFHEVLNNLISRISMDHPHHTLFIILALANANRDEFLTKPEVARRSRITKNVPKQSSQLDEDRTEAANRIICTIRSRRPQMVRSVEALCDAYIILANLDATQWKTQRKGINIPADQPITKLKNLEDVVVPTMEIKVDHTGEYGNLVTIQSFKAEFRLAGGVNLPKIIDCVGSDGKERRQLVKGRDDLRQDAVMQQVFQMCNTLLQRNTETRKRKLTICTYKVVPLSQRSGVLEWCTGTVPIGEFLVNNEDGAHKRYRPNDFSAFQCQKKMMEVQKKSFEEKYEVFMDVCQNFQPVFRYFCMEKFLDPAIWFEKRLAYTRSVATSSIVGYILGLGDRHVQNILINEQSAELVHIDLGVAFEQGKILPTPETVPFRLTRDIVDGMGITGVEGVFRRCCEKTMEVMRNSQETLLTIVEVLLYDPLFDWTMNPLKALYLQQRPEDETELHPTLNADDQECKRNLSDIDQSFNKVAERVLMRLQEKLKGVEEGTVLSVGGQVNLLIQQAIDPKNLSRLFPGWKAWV

Row | SMILES | IC50 (ATM) [µM] | further results
1 | Cc1cn([C@H]2C[C@H](N=[N+]=[N-])[C@@H](CO)O2)c(=O)[nH]c1=O [AZT, 3′-azido-3′-deoxythymidine, reference compound] |  | IC50 (HIV-1 HXB2 wild type): 0.002 µM; IC50 (HIV-1 HXB2 AZT resistant): 0.05 µM
2 | O=c1cc(-c2cccc3c2Sc2ccccc2S3)oc(N2CCOCC2)c1 [Compound 4, 2-Thianthren-1-yl-6-morpholin-4-yl-pyran-4-one] |  | IC50 (HIV-1 [1]): 1 to 10 µM; sensitisation of cells to etoposide (% survival) (LoVo cells; FIG. 2): can sensitise cells to etopside; sensitisation of cells to camptothecin (% survival) (LoVo cells; FIG. 3): can sensitise cells to camptothecin; sensitisation of cells to doxorubicin (% survival) (LoVo cells; FIG. 4): can sensitise cells to doxorubicin; inhibition of HIV-1 replication (HIV-1 HXB2 wild type; 4-day replication assays, FIG. 8): inhibits HIV-1 replication; IC50 (HIV-1 HXB2 wild type): 0.1 µM; IC50 (HIV-1 [2]; Human immunodeficiency virus 1, Jurkat, read-out: IC50 in HIV-1 based LUCIA, Jurkat T-cells): ~1 µM; inhibition of retroviral vector transduction (LUCIA) (HIV-1 [2]; Jurkat T-cells): can inhibit recombinant retroviral vector infections; also recorded: efficiently inhibit HIV-1 LUCIA at low micromolar concentrations; inhibition of HIV-1 RT (HIV-1 RT): does not inhibit HIV-1 RT; inhibition of HIV-1 replication, wild-type versus AZT resistant strain (HIV-1 HXB2 AZT resistant; 4-day replication assays, FIG. 8A, 8B): inhibits HIV-1 replication equally well in both wild-type and AZT resistant HIV-1 strains; also recorded: inhibited HIV-1 replication equally well; IC50 (HIV-1 HXB2 AZT resistant): 0.06 µM; cytotoxicity (percentage of viable cells) (C8166 T-cells): No significant cytotoxicity; also recorded: no significant cytotoxic effects; CC50 at 4 days [3]: > 20 µM; sensitisation of cells to ionising radiation (% survival) (HeLa cells; HeLa cells, compound at 0.5 μM and 2 μM, FIG. 1): can sensitise cells to ionising radiation; sensitising tumour derived cell lines to DNA double strand break inducing agents (HeLa cells; summary of FIGS. 1–4 (HeLa and LoVo)): significant effect on sensitising tumour derived cell lines to DNA double strand break inducing agents
3 | COc1ccccc1C(=O)Nc1ccc2c(c1)Cc1cccc(-c3cc(=O)cc(N4CCOCC4)o3)c1S2 [Compound 29] | < 0.2 | 
4 | O=C(Nc1ccc(-c2cc(=O)cc(N3CCOCC3)o2)c2c1Cc1ccccc1S2)c1ccc[nH]1 [Compound 128] | < 0.2 | 
5 | COc1ccc(CNCC(=O)Nc2ccc3c(c2)Cc2cccc(-c4cc(=O)cc(N5CCOCC5)o4)c2S3)cc1 [Compound 63] | < 0.2 | 
6 | O=C(NCCCN1CCOCC1)c1ccc2c(c1)Sc1cccc(-c3cc(=O)cc(N4CCOCC4)o3)c1S2 [Compound 178] | < 0.2 | 
7 | CC(C)NC(=O)c1ccc2c(c1)Sc1cccc(-c3cc(=O)cc(N4CCOCC4)o3)c1S2 [Compound 146] | < 0.2 | 
8 | COC(=O)c1ccc2c(c1)Sc1cccc(-c3cc(=O)cc(N4CCOCC4)o3)c1S2 [Compound 137, 6-(6-Morpholin-4-yl-4-oxo-4H-pyran-2-yl)-thianthrene-2-carboxylic acid methyl ester] | < 0.2 | 
9 | O=C(NCC1CC1)c1ccc2c(c1)Sc1cccc(-c3cc(=O)cc(N4CCOCC4)o3)c1S2 [Compound 152] | < 0.2 | 
10 | N#Cc1ccc(C(=O)Nc2ccc(-c3cc(=O)cc(N4CCOCC4)o3)c3c2Cc2ccccc2S3)cc1 [Compound 113] | < 0.2 | 
11 | O=C(CN(CCO)CCO)Nc1ccc2c(c1)Cc1cccc(-c3cc(=O)cc(N4CCOCC4)o3)c1S2 [Compound 54] | < 0.2 | 
12 | CC(=O)N1CCC(C(=O)Nc2ccc3c(c2)Cc2cccc(-c4cc(=O)cc(N5CCOCC5)o4)c2S3)CC1 [Compound 36] | < 0.2 | 
13 | O=C(NCCN1CCCCC1)c1ccc2c(c1)Sc1cccc(-c3cc(=O)cc(N4CCOCC4)o3)c1S2 [Compound 166] | < 0.2 | 
14 | O=c1cc(-c2cccc3c2Sc2ccccc2N3)oc(N2CCOCC2)c1 [Compound 135, 2-Morpholin-4-yl-6-(10H-phenothiazin-4-yl)-pyran-4-one] | < 0.2 | 
15 | COc1cc(C(=O)Nc2ccc3c(c2)Cc2cccc(-c4cc(=O)cc(N5CCOCC5)o4)c2S3)cc(OC)c1OC [Compound 38] | < 0.2 | 

Now from value to compound, other results behind:

Row | IC50 (ATM) [µM] | SMILES | further results
16 | < 0.2 | CSc1ncccc1C(=O)Nc1ccc(-c2cc(=O)cc(N3CCOCC3)o2)c2c1Cc1ccccc1S2 [Compound 122] | 
17 | < 0.2 | CC(C)(C)OC(=O)Nc1ccc2c(c1)Cc1cccc(-c3cc(=O)cc(N4CCOCC4)o3)c1S2 [Compound 19, [5-(6-Morpholin-4-yl-4-oxo-4H-pyran-2-yl)-9H-thioxanthen-2-yl]-carbamic acid tert-butyl ester] | 
18 | < 0.2 | O=C(Nc1ccc2c(c1)Cc1cccc(-c3cc(=O)cc(N4CCOCC4)o3)c1S2)c1ccncc1 [Compound 28] | 
19 | < 0.2 | O=C(Cc1cccs1)Nc1ccc2c(c1)Cc1cccc(-c3cc(=O)cc(N4CCOCC4)o3)c1S2 [Compound 31] | 
20 | < 0.2 | O=C(CNCC1CCCO1)Nc1ccc2c(c1)Cc1cccc(-c3cc(=O)cc(N4CCOCC4)o3)c1S2 (centres unmarked) [Compound 68] | 
21 | < 0.2 | O=C(CCSc1ncn[nH]1)Nc1ccc2c(c1)Cc1cccc(-c3cc(=O)cc(N4CCOCC4)o3)c1S2 [Compound 82] | 
22 | < 0.2 | CC(=O)Oc1ccccc1C(=O)Nc1ccc(-c2cc(=O)cc(N3CCOCC3)o2)c2c1Cc1ccccc1S2 [Compound 109] | 
23 | < 0.2 | O=C(NCc1ccncc1)c1ccc2c(c1)Sc1cccc(-c3cc(=O)cc(N4CCOCC4)o3)c1S2 [Compound 172] | 
24 | < 0.2 | O=C(CSc1ncn[nH]1)Nc1ccc2c(c1)Cc1cccc(-c3cc(=O)cc(N4CCOCC4)o3)c1S2 [Compound 64] | 
25 | < 0.2 | NCC(=O)Nc1ccc2c(c1)Cc1cccc(-c3cc(=O)cc(N4CCOCC4)o3)c1S2 [Compound 66] | 
26 | < 0.2 | COCC(=O)CC(=O)Nc1ccc(-c2cc(=O)cc(N3CCOCC3)o2)c2c1Cc1ccccc1S2 [Compound 124] | 
